Measurements published in ChEMBL document CHEMBL1201862, “PubChem BioAssay data set” (2004).
Activity calls are given as the source filed them.

How the values were obtained:
Leucine aminopeptidase = molecular target: T1, Leucine aminopeptidase (Plasmodium falciparum 3D7, UniProt Q8IL11); assay: P. falciparum M17LAP inhibitors, primary screen, biochemical, fluorogenic H-Leu-NHMec substrate, 1536-well (AID 1619); format: functional
T1 sequence (Q8IL11 whole entry): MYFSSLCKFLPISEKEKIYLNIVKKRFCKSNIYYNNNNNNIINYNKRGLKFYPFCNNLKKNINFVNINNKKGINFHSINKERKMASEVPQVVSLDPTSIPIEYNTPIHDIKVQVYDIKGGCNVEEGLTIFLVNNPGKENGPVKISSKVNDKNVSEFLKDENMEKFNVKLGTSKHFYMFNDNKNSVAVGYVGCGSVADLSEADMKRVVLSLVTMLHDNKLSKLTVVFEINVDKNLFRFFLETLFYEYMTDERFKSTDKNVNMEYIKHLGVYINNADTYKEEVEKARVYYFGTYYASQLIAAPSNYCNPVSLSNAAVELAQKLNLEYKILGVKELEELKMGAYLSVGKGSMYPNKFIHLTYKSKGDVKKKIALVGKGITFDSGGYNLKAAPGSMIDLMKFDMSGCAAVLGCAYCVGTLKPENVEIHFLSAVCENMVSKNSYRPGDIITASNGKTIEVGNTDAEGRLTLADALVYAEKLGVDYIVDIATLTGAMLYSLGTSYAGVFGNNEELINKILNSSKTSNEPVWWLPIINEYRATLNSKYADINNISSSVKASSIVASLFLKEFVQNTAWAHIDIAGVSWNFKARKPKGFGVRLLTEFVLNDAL

[1] = molecular target: Nuclear receptor subfamily 5 group A member 2 (Homo sapiens, UniProt O00482); format: functional, cell-based;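 further: HEK293T cells transfected with LRH-1 and a StAR promoter luciferase reporter; potency for inhibitors that lower LRH-1 driven reporter light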
Sequence of Nuclear receptor subfamily 5 group A member 2 (O00482 whole entry): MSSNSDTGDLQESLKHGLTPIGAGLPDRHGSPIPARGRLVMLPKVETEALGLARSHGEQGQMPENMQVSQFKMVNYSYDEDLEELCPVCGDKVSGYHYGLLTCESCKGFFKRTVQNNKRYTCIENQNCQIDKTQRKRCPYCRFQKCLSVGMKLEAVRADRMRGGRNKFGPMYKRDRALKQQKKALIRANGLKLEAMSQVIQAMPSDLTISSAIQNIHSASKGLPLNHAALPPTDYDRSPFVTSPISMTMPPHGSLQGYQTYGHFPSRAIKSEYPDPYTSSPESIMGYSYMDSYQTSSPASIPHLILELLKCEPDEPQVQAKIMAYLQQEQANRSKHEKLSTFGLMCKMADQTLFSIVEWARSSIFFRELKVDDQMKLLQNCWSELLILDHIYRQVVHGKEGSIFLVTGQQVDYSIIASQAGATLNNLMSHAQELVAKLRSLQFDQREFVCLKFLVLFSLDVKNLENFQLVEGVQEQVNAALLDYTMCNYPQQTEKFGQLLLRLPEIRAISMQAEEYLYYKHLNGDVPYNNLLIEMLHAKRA

Steroidogenic factor 1 = Steroidogenic factor 1 (Homo sapiens, UniProt Q13285); assay: Counterscreen for inverse agonists of the liver receptor homolog-1 (LRH-1; NR5A2): Luminescence-based cell-based high throughput dose response assay to identify inverse agonists of the Steroidogenic Factor 1 Nuclear Receptor (SF1; NR5A1).; format: functional
Sequence of Steroidogenic factor 1 (Q13285 whole entry): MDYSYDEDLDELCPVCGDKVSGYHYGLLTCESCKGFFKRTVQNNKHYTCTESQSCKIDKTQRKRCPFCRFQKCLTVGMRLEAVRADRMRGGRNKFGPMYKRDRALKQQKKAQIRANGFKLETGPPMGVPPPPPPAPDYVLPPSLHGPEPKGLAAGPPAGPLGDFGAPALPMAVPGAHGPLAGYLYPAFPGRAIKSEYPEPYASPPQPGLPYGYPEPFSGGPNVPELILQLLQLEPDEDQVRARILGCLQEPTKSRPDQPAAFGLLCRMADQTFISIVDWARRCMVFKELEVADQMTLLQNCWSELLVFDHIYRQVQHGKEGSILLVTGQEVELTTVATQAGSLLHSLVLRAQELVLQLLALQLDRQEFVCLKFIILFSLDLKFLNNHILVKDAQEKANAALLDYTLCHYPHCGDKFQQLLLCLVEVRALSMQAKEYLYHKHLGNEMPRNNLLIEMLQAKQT

[2] = nonselective StAR promoter luciferase inhibitors – cell-based, luminescence, luciferase reporter, counter-screen for LRH-1 inverse agonist project, dose response (AID 651969); format: functional
[3] = blockers of HIV-1 envelope-mediated cell-cell fusion – cherry-pick, dose response (AID 652057); format: functional, cell-based
[4] = blockers of HIV-1 ZM109 envelope-driven cell-cell fusion – HeLa effector, CEM target cells, luciferase, cherry-pick, dose response (AID 652058); format: functional, cell-based;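 further: luciferase signal from HIV-1 Env mediated cell-cell fusion of effector and target cells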
[5] = off-target signal loss in HeLa-CEM21 co-culture – HeLa F-luc CTL cells, cherry-picked, counter-screen for HIV-1 Env fusion inhibitor project, dose response (AID 652040); format: functional, cell-based;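 further: potency for signal decrease marking cytotoxic or nonspecific inhibition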
[6] = HIV-1 AD8 envelope cell-cell fusion blockers – cherry-pick, dose response (AID 652062); format: functional, cell-based;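 further: luciferase signal from cell-cell fusion driven by HIV-1 clade B AD8 Env; potency is for inhibitors of fusion seen as a drop in luminescence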
Large T antigen = Large T antigen (Simian virus 40, UniProt P03070); format: functional, Betapolyomavirus macacae;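 further: Confirmatory-stage PubChem screen for compounds that inhibit SV40 T antigen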
Sequence of Large T antigen (P03070 whole entry): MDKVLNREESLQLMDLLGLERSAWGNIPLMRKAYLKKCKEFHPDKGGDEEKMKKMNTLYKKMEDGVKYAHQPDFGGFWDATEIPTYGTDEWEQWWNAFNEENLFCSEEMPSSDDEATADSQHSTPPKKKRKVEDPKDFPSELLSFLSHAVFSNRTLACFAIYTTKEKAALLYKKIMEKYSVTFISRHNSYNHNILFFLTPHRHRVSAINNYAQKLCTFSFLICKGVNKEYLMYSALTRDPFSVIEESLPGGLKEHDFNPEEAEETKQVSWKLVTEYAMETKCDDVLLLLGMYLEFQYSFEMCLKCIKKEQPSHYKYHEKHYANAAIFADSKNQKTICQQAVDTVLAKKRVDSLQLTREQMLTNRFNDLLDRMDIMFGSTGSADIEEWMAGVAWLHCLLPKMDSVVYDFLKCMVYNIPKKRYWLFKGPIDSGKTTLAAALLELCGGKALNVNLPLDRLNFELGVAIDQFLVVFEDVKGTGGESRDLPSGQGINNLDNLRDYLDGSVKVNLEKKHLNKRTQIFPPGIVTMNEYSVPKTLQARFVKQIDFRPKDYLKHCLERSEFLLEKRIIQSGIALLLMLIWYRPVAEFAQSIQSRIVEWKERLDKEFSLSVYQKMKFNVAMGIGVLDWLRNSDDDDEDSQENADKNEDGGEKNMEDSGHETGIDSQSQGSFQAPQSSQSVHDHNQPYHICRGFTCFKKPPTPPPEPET

[7] = molecular target: T2, Endoribonuclease toxin MazF (Escherichia coli K-12, UniProt P0AE70); assay: activation of MazEF endoribonuclease cleavage – biochemical, fluorescence, single-stranded RNA substrate, uHTS hits, dose response (AID 588481); format: functional
T2 sequence (P0AE70 whole entry): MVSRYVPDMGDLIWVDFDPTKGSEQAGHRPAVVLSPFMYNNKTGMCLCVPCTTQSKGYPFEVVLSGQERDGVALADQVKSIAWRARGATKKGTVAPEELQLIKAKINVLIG

[8] = molecular target: T2, Endoribonuclease toxin MazF; assay: substrate-only fluorescence increase artefacts – biochemical, single-stranded RNase substrate, counter-screen for MazEF activator project, dose response (AID 588502); format: functional
[9] = molecular target: T3, Corticotropin-releasing factor receptor 2/Corticotropin-releasing factor-binding protein (Homo sapiens, UniProt P24387+Q13324); assay: activators of CRF receptor 2 with binding protein – uHTS hits, confirmation (AID 602473); format: functional; conditions: read-out: EC50_Mean
T3 sequence (Q13324 whole entry): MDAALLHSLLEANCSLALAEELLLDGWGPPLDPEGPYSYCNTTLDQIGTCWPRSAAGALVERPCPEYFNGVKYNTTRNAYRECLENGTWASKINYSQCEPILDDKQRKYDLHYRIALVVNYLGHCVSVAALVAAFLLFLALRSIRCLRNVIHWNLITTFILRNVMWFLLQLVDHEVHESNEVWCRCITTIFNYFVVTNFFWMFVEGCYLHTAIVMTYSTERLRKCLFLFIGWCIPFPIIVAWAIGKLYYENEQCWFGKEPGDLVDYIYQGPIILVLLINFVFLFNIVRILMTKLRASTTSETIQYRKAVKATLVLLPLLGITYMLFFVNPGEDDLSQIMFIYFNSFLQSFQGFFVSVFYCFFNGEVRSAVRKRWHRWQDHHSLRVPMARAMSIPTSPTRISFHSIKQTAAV
T3 sequence (P24387 whole entry): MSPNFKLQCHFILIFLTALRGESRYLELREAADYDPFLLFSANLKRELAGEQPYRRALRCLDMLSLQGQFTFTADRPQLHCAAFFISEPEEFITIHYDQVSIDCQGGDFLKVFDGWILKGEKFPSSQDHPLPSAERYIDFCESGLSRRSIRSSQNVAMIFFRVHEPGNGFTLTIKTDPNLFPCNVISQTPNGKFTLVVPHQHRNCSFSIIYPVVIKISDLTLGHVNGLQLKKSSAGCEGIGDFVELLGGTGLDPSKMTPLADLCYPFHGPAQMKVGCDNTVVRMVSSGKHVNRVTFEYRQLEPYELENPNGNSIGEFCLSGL

Beta-lactamase [10] = molecular target: Beta-lactamase (Salmonella choleraesuis (strain SC-B67), UniProt Q5J463); assay: Epi-absorbance-based counterscreen for selective VIM-2 inhibitors: dose response biochemical high throughput screening assay to identify inhibitors of TEM-1 serine-beta-lactamase.
Sequence of Beta-lactamase (Salmonella choleraesuis (strain SC-B67), UniProt Q5J463) (Q5J463 whole entry): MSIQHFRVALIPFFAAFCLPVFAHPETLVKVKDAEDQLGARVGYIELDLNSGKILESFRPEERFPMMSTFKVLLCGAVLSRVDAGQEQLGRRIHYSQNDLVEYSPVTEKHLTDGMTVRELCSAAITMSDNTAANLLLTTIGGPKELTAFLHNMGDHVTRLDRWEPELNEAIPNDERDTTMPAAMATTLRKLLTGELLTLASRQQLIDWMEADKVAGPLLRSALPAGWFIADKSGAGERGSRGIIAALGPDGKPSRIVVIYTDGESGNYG

Beta-lactamase [11] = molecular target: T4, Beta-lactamase (Pseudomonas aeruginosa, UniProt Q79MP6); assay: inhibition of IMP-1 beta-lactamase activity – biochemical, epi-absorbance, selectivity assay for VIM-2 inhibitor project, dose response (AID 1920)
T4 sequence (Q79MP6 whole entry): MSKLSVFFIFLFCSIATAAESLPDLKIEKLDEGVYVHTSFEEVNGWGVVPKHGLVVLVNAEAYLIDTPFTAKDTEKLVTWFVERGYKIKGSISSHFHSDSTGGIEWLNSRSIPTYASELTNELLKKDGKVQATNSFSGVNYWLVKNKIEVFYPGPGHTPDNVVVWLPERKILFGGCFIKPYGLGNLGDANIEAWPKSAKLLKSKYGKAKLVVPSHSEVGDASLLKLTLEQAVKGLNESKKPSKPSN

Beta-lactamase [12] = molecular target: T4, Beta-lactamase; assay: […] counterscreen for selective VIM-2 inhibitors: dose response biochemical high throughput screening assay to identify inhibitors of IMP-1 metallo-beta-lactamase.
[13] = molecular target: Induced myeloid leukemia cell differentiation protein Mcl-1 (Homo sapiens, UniProt Q07820); format: functional
Sequence of Induced myeloid leukemia cell differentiation protein Mcl-1 (Q07820 whole entry): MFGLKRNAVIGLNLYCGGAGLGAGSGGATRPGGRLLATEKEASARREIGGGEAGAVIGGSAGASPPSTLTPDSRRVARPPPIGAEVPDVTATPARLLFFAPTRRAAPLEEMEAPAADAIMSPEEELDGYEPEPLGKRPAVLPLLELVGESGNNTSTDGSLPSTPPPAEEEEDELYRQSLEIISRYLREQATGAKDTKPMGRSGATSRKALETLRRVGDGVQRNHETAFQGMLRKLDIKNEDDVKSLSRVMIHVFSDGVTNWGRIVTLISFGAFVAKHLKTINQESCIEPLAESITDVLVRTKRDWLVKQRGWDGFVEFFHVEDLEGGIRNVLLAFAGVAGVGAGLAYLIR

[14] = molecular target: E3 ubiquitin-protein ligase Mdm2 (Homo sapiens, UniProt Q00987); assay: MDM2-luc reporter signal enhancers, multi-concentration potency testing, MDM2 ubiquitin-protein ligase inhibitor program, whole-cell format, luminescence detection, 384-well microplate (AID 1394); format: functional;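 further: MDM2 E3 inhibitors raise luminescence so EC50 is for signal enhancement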
Sequence of E3 ubiquitin-protein ligase Mdm2 (Q00987 whole entry): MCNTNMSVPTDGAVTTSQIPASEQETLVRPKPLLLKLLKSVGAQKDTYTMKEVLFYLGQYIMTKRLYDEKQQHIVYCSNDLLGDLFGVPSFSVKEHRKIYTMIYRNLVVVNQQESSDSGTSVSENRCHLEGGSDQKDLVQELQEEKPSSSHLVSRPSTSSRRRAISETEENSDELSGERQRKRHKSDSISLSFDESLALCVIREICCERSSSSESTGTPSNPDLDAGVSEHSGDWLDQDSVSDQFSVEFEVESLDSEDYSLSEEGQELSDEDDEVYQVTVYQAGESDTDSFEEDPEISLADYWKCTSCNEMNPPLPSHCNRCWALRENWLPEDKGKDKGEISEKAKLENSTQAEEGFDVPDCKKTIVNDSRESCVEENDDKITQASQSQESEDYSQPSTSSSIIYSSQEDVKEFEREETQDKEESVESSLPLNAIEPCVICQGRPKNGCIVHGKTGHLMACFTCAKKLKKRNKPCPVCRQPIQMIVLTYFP

BJ [15] = assay: BJ-TERT fibroblast viability loss – cell-based, RAS-independent, luminescence, dose response (AID 1933); format: functional; conditions: Homo sapiens
BJ [16] = assay: cells; format: functional, cell-based; conditions: Homo sapiens
BJ [17] = assay: BJ-TERT-LT-ST fibroblast viability loss – cell-based, RAS-independent, luminescence, dose response (AID 1935); format: functional; conditions: Homo sapiens;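 further: BJ fibroblasts immortalized with TERT plus LT and ST oncogenes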
[18] = DRD fibroblast viability loss – cell-based, non-viral oncogenic, luminescence, dose response (AID 1934); format: functional; conditions: Homo sapiens
[19] = HEK-293T viability loss after treatment – luminescence, T-cell screen hits, cytotoxicity control for TCR NF-kB inhibitor project, dose response (AID 489026); format: functional, cell-based;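 further: cells exposed to compound about 14 hours before the viability readout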

## Cc1ccccc1NC(=O)CSc1nc(O)cc(C)c1C#N
Leucine aminopeptidase
  IC50: 10.9 µM (active)

## Cc1ccc(C)c(NC(=O)CSc2nc(O)c3c[nH]nc3n2)c1
[1]
  IC50: 29 µM (inactive)
Steroidogenic factor 1
  IC50: 6.65 µM (active)
[2]
  IC50: 35.9 µM (inactive)

## O=c1c2ccccc2nc(CN2CCCCCC2)n1-c1ccc(F)cc1
[3]
  AC50: 20.9 µM (active)
[4]
  AC50: 30.2 µM (active)
[5]
  AC50: 10.1 µM (active)
[6]
  AC50: 50.6 µM (active)

## CCn1c(/C=C/c2ccc(O)c(O)c2)nc2ccccc2c1=O
Large T antigen
  IC50: 35.6 µM (active)
[7]
  EC50: > 99 µM (inactive)
[8]
  EC50: 88.4 µM (inactive)

## Cc1cccc(NC(=O)CSc2nnc(NC(=O)CN3CCOCC3)s2)c1
Leucine aminopeptidase
  IC50: 14 µM (active)

## CCCCC(=O)Nc1ccc(C(=O)Nc2ccc(OC)cc2[N+](=O)[O-])cc1
[7]
  EC50: > 99 µM (inactive)
[8]
  EC50: > 99 µM (inactive)
[9]
  EC50: 7.74 µM (active)

## Cc1cccc(C2c3[nH]c4ccccc4c3CCN2C(=O)c2cc(CC(C)C)nc(=O)[nH]2)n1 (stereo not drawn)
Beta-lactamase [10]
  IC50: > 59.6 µM (inactive)
Beta-lactamase [11]
  IC50: > 59.6 µM (inactive)
Beta-lactamase [12]
  IC50: > 59.6 µM (inactive)

## CC(=O)Nc1ccc(NC(=O)CSc2ccc(-c3ccc(-n4ccnc4)cc3)nn2)cc1
[1]
  IC50: 35.9 µM (inactive)
Steroidogenic factor 1
  IC50: 35.9 µM (inactive)
[2]
  IC50: 35.9 µM (inactive)

## CCOC(=O)c1c(NC(C)=O)sc2c(O)c(Br)cc(Br)c12
Large T antigen
  IC50: 56.7 µM (active)
[13]
  IC50: 4.76 µM (active)

## CCSc1nc2ccccc2n1C(=O)/C=C\c1ccc(OC)c(OC)c1
[14]
  EC50: 0.24 µM (active)
BJ [15]
  EC50: 4.41 µM (inconclusive)
BJ [16]
  EC50: 8.04 µM (active)
BJ [17]
  EC50: 5.15 µM (inconclusive)
[18]
  EC50: 4.6 µM (inconclusive)
[19]
  IC50: > 80 µM (inactive)

## CCOc1c(C)cnc2c1c(=O)n(Cc1ccc(Cl)cc1)c(=O)n2C
[3]
  AC50: 7.77 µM (active)
[4]
  AC50: 12.1 µM (active)
[5]
  AC50: 12.5 µM (active)
[6]
  AC50: 8.07 µM (active)

## Cc1cccc(Nc2nnc(SCC3CCCCO3)s2)c1C (stereo not drawn)
[14]
  EC50: 12.4 µM (not active)

## COC(=O)c1ccc(Cl)c(NC(=O)CSc2nnc[nH]2)c1
Leucine aminopeptidase
  IC50: 35.1 µM (active)

## CC(=O)Nc1ccc(NC(=O)CSc2nnc(NC(=O)C3CC3)s2)cc1
[1]
  IC50: 9.26 µM (active)
Steroidogenic factor 1
  IC50: 8.29 µM (active)
[2]
  IC50: 35.9 µM (inactive)
